These results are taken from ChEMBL document CHEMBL4190385, “Benzofuran-pyran hybrids: A new class of potential bone anabolic agents” (Bioorg Med Chem Lett, 2018).

The subject of series [1] is Calvarial osteoblast. As to the kind of experiment: Stimulation of mineralization in rat calvarial osteoblasts assessed as increase in calcium nodules at 100 pM by Alizarin red S staining based photography. Format: functional, cell-based.
Series [2] has as its system Calvarial osteoblast. The series can be described thus: Stimulation of osteoblast differentiation in rat calvarial osteoblasts assessed as increase in ALP activity at 1 pM to 100 uM using p-nitrophenylphosphate substrate incubated for 48 hrs by colorimetry. Format: functional, cell-based.
Series [3] deals with Calvarial osteoblast. As to the kind of experiment: Cytotoxicity in rat calvarial osteoblasts assessed as reduction in cell viability at 1 pM to 1 uM incubated for 48 hrs by MTT assay. Format: cell-based.
Series [4] is described as follows: Increase in Runx-2 mRNA expression in Sprague-Dawley rat bone marrow stromal cells at 10 nM incubated for 7 days hrs by qPCR method. Format: functional. A general note: In qPCR the cycle at which signal appears reflects the starting amount.
Series [5] concerns Calvarial osteoblast. The series can be described thus: Stimulation of osteoblast differentiation in rat calvarial osteoblasts assessed as increase in ALP activity at 100 nM using p-nitrophenylphosphate substrate incubated for 48 hrs by colorimetry. Format: functional, cell-based.
Series [6] concerns Calvarial osteoblast. As to the kind of experiment: Increase in Runx-2 mRNA expression in rat calvarial osteoblasts at 10 nM incubated for 72 hrs by qPCR method. The class given is functional.
For series [7], the system named is Calvarial osteoblast. The series can be described thus: Stimulation of mineralization in rat calvarial osteoblasts assessed as increase in calcium nodules at 10 nM by Alizarin red S staining based photography. Format: functional, cell-based.
For series [8], the species on record is Rattus norvegicus. As to the kind of experiment: Stimulation of mineralization in Sprague-Dawley rat bone marrow stromal cells assessed as increase in calcium nodules at 10 nM incubated for 18 days hrs by Alizarin red S staining based photography. The class given is functional.
Series [9] in a line: Increase in Osx mRNA expression in Sprague-Dawley rat bone marrow stromal cells at 10 nM incubated for 7 days hrs by qPCR method. The class given is functional.
Series [10] concerns Calvarial osteoblast. As to the kind of experiment: Increase in BMP2 mRNA expression in rat calvarial osteoblasts at 10 nM incubated for 72 hrs by qPCR method. Format: functional.
The species entered for series [11] is Rattus norvegicus. The series can be described thus: Stimulation of mineralization in Sprague-Dawley rat bone marrow stromal cells assessed as increase in calcium nodules at 1 uM incubated for 18 days hrs by Alizarin red S staining based photography. Format: functional.
A short description of series [12]: Increase in BMP2 mRNA expression in Sprague-Dawley rat bone marrow stromal cells at 10 nM incubated for 7 days hrs by qPCR method. The class given is functional.
Series [13] deals with Calvarial osteoblast. The series can be described thus: Increase in COL1 mRNA expression in rat calvarial osteoblasts at 10 nM incubated for 72 hrs by qPCR method. Format: functional.
Series [14] can be described thus: Increase in BMP2 mRNA expression in Sprague-Dawley rat bone marrow stromal cells at 1 uM incubated for 7 days hrs by qPCR method. Format: functional.
The test system of series [15] is Calvarial osteoblast. As to the kind of experiment: Stimulation of mineralization in rat calvarial osteoblasts assessed as increase in calcium nodules at 10 pM by Alizarin red S staining based photography. Format: functional, cell-based.
The subject of series [16] is Calvarial osteoblast. As to the kind of experiment: Stimulation of mineralization in rat calvarial osteoblasts assessed as increase in calcium nodules at 1 uM by Alizarin red S staining based photography. Format: functional, cell-based.
The subject of series [17] is Calvarial osteoblast. The series can be described thus: Stimulation of osteoblast differentiation in rat calvarial osteoblasts assessed as increase in ALP activity at 1 uM using p-nitrophenylphosphate substrate incubated for 48 hrs by colorimetry. Format: functional, cell-based.

Active and inactive are the calls of the source. The calls are words filed in the database; no cut-off is given here.

As for `CCc1cc(C2C(C#N)=C(N)OC3=C2C(=O)CC(C)(C)C3)cc2cc(C(=O)c3ccc(OC)cc3)oc12` (centres undefined), in the series on Calvarial osteoblast [1], the result was inactive. Besides, the result in the series on Calvarial osteoblast [2] was Active. In addition, the Activity entry with Calvarial osteoblast [3] is on record as “Non-Toxic”.
The corresponding values for `COc1ccc(C(=O)c2cc3cc(C4C(C#N)=C(N)OC5=C4C(=O)CC(C)(C)C5)cc(C(C)(C)C)c3o2)cc1` (centres undefined) are “inactive”, “Active” and “Non-Toxic”.
Regarding `COc1ccc(C(=O)c2cc3cc(C4C(C#N)=C(N)OC5=C4C(=O)CC(C)(C)C5)cc(C)c3o2)cc1` (centres undefined), the “fold change (FC)” value was 2 in series [4]; 2.4 in the series with Calvarial osteoblast [6]; 3 in series [9]; 2.2 in the series with Calvarial osteoblast [10]; 2.8 in series [12]; 1.8 in the series with Calvarial osteoblast [13]. For the same compound, the “fold change (FC)” value in series [14] is recorded as 1.8. For the same compound, the result in the series with Calvarial osteoblast [5], in the series with Calvarial osteoblast [7], in the series listed under Rattus norvegicus [8], in the series on Calvarial osteoblast [2] and in the series listed under Rattus norvegicus [11] was Active. Also, in the series on Calvarial osteoblast [3], the Activity result is “Non-Toxic”.
On to `CC1(C)CC(=O)C2=C(C1)OC(N)=C(C#N)C2c1cc(C(C)(C)C)c2oc(C(=O)c3ccc(Cl)cc3)cc2c1` (centres undefined), for which, in the series with Calvarial osteoblast [15], the outcome was inactive. Further, the result in the series with Calvarial osteoblast [2] was Active. In addition, in the series with Calvarial osteoblast [3], the Activity entry is reported as “Non-Toxic”.
For the compound `Cc1ccc(C(=O)c2cc3cc(C4C(C#N)=C(N)OC5=C4C(=O)CC(C)(C)C5)cc(C(C)(C)C)c3o2)cc1` (centres undefined), the outcome in the series on Calvarial osteoblast [16] and in the series on Calvarial osteoblast [2] was Active. Besides, in the series on Calvarial osteoblast [3], the Activity result was “Non-Toxic”.
On to `Cc1ccc(C(=O)c2cc3cc(C4C(C#N)=C(N)OC5=C4C(=O)CC(C)(C)C5)cc(C)c3o2)cc1` (centres undefined), for which the result in the series on Calvarial osteoblast [7] was inactive. For the same compound, the result in the series on Calvarial osteoblast [17] and in the series on Calvarial osteoblast [2] was Active. For the same compound, in the series with Calvarial osteoblast [3], the Activity result is on record as “Non-Toxic”.
